Assay results taken from patent US12209102B2, “Heterocyclic compounds and uses thereof” (Kumquat Biosciences Inc., priority 2022, dated 2025).

Columns and labels:
SW620 cells = assay: Ras cellular assay, growth of cells with K-Ras G12V mutation (CellTiter-Glo); assay type: cell-based; settings: Homo sapiens, SW-620; cell growth, Example 9, G12V mutation; read-out: IC50 against SW620 cells
Outline: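 SW620 (K-Ras G12V) cells, e.g. 800/well in RPMI-1640 with 10% heat-inactivated FBS on standard or ultra-low attachment plates, were dosed the day after plating with e.g. a 10-point 3-fold series. Viability by CellTiter-Glo luminescence about 6 days later; IC50 from four-parameter fit.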

K-Ras G12V = target: T1, K-Ras G12V (Homo sapiens, UniProt P01116, G12V); assay: HTRF resonance energy transfer assay, K-Ras G12V / SOS1 interaction; assay type: biochemical; settings: HTRF assay of Example 5; read-out: IC50 against K-Ras G12V
T1 construct: made in house; host or cells: E. coli BL21 (DE3)
T1 sequence (P01116 1-188 isoform P01116-2 G12V): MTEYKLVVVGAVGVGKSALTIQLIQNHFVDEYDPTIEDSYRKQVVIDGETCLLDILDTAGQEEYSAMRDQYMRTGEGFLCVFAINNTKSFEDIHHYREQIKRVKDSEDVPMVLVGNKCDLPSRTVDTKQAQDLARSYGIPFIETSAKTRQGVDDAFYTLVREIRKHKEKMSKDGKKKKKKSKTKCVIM
Outline: (§1)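 Read-out: HTRF 665/620 nm ratio (excitation 337 nm) after roughly 10 min or longer incubation, used to derive IC50. Donor anti-GST-Eu on GST-K-Ras; acceptor anti-6His-XL665 on His-hSOS1. Duplicate dose series from 10 μM down to 0.01 μM.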

K-Ras G12D = target: T2, K-Ras G12D (Homo sapiens, UniProt P01116, G12D); assay: HTRF resonance energy transfer assay, K-Ras G12D / SOS1 interaction; assay type: biochemical; settings: HTRF assay of Example 5; read-out: IC50 against K-Ras G12D
T2 construct: made in house; host or cells: E. coli BL21 (DE3)
T2 sequence (P01116 1-188 isoform P01116-2 G12D): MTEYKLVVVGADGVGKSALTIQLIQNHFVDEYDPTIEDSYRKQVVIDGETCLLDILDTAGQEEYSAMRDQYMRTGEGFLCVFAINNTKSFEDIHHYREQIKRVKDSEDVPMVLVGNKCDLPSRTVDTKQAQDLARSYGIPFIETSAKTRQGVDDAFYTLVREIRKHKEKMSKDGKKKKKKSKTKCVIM
Outline: as §1

A549 cells = assay: Ras cellular assay, growth of cells with K-Ras G12S mutation (CellTiter-Glo); assay type: cell-based; settings: Homo sapiens, cell growth, Example 9, G12S mutation, read-out: IC50 against A549 cells
Outline: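 A549 cells (K-Ras G12S) in RPMI-1640 with 10% heat-inactivated FBS, seeded e.g. 800 per well in standard or ultra-low-attachment 384-well plates, treated next day with a dilution series (e.g. 10-point, 3-fold). Viability by CellTiter-Glo luminescence about 6 days later; IC50 from four-parameter fit.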

K-Ras WT = target: T3, K-Ras WT (Homo sapiens, UniProt P01116); assay: HTRF resonance energy transfer assay, K-Ras WT / SOS1 interaction; assay type: biochemical; settings: HTRF assay of Example 5; read-out: IC50 against K-Ras WT
T3 construct: made in house; host or cells: E. coli BL21 (DE3)
T3 sequence (P01116 1-188 isoform P01116-2): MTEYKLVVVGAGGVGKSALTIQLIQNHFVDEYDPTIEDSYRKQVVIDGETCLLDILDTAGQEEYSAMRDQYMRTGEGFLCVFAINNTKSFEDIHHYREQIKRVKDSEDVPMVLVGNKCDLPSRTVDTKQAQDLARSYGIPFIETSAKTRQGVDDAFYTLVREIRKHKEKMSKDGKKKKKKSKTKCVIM
Outline: as §1

K-Ras G12S = target: T4, K-Ras G12S (Homo sapiens, UniProt P01116, G12S); assay: HTRF resonance energy transfer assay, K-Ras G12S / SOS1 interaction; assay type: biochemical; settings: HTRF assay of Example 5; read-out: IC50 against K-Ras G12S
T4 construct: made in house; host or cells: E. coli BL21 (DE3)
T4 sequence (P01116 1-188 isoform P01116-2 G12S): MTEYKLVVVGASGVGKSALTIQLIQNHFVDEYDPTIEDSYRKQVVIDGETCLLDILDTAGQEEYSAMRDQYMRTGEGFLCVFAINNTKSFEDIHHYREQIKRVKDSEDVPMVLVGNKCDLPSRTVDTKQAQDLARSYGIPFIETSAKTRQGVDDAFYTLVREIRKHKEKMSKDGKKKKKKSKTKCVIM
Outline: as §1

Row | IC50 (SW620 cells) [nM] | IC50 (K-Ras G12V) [nM] | IC50 (K-Ras G12D) [nM] | IC50 (A549 cells) [nM] | IC50 (K-Ras WT) [nM] | IC50 (K-Ras G12S) [nM] | Structure (SMILES)
1 | < 5000 | < 100 | < 100 | < 5000 | < 100 | < 100 | N#Cc1c(N)sc2c(F)ccc(-c3c(Cl)c4c5c(nc(OC[C@@]67CCCN6C[C@H](F)C7)nc5c3F)N(C3CC(NC=O)C3)CCO4)c12 (stereo partly drawn) [Compound 836, N-(3-(9-(2-amino-3-cyano-7-fluorobenzo[b]thiophen-4-yl)-8-chloro-10-fluoro-2-(((2R,7aS)-2-fluorotetrahydro-1H-pyrrolizin-7a(5H)-yl)methoxy)-5,6-dihydro-4H-[1,4]oxazepino[5,6,7-de]quinazolin-4-yl)cyclobutyl)formamide]
2 | < 5000 | < 100 | < 100 | < 5000 | < 100 | < 100 | CNC(=O)C1CCCC(N2CCOc3c(Cl)c(-c4ccc(F)c5sc(N)c(C#N)c45)c(F)c4nc(OC[C@@]56CCCN5C[C@H](F)C6)nc2c34)C1 (stereo partly drawn) [Compound 841, 3-(9-(2-amino-3-cyano-7-fluorobenzo[b]thiophen-4-yl)-8-chloro-10-fluoro-2-(((2R,7aS)-2-fluorotetrahydro-1H-pyrrolizin-7a(5H)-yl)methoxy)-5,6-dihydro-4H-[1,4]oxazepino[5,6,7-de]quinazolin-4-yl)-N-methylcyclohexane-1-carboxamide]
3 | < 5000 | < 100 | < 100 | < 5000 | < 100 | < 100 | C[C@H]1CN([C@@H]2CCOC2)c2nc(OC[C@@]34CCCN3C[C@H](F)C4)nc3c(F)c(-c4ccc(F)c5sc(N)c(C#N)c45)c(Cl)c(c23)O1 [Compound 958, 2-amino-4-((6S)-8-chloro-10-fluoro-2-(((2R,7aS)-2-fluorotetrahydro-1H-pyrrolizin-7a(5H)-yl)methoxy)-6-methyl-4-((R)-tetrahydrofuran-3-yl)-5,6-dihydro-4H-[1,4]oxazepino[5,6,7-de]quinazolin-9-yl)-7-fluorobenzo[b]thiophene-3-carbonitrile]
4 | < 5000 | < 100 | < 100 | < 5000 | < 100 | < 100 | N#Cc1c(N)sc2c(F)ccc(-c3c(Cl)c4c5c(nc(OC[C@@]67CCCN6C[C@H](F)C7)nc5c3F)N(C3CCCCC3)CCO4)c12 [Compound 1116, 2-amino-4-(8-chloro-4-cyclohexyl-10-fluoro-2-(((2R,7aS)-2-fluorotetrahydro-1H-pyrrolizin-7a(5H)-yl)methoxy)-5,6-dihydro-4H-[1,4]oxazepino[5,6,7-de]quinazolin-9-yl)-7-fluorobenzo[b]thiophene-3-carbonitrile]
5 | < 5000 | < 100 | < 100 | < 5000 | < 100 | < 100 | N#Cc1c(N)sc2c(F)ccc(-c3c(Cl)c4c5c(nc(OC[C@@]67CCCN6C[C@H](F)C7)nc5c3F)N(C3CCN(CC(F)F)C3)CCO4)c12 (stereo partly drawn) [Compound 693, 2-amino-4-(8-chloro-4-(1-(2,2-difluoroethyl)pyrrolidin-3-yl)-10-fluoro-2-(((2R,7aS)-2-fluorotetrahydro-1H-pyrrolizin-7a(5H)-yl)methoxy)-5,6-dihydro-4H-[1,4]oxazepino[5,6,7-de]quinazolin-9-yl)-7-fluorobenzo[b]thiophene-3-carbonitrile]
6 | < 5000 | < 100 | < 100 | < 5000 | < 100 | < 100 | N#Cc1c(N)sc2c(F)ccc(-c3c(Cl)c4c5c(nc(OC[C@@]67CCCN6C[C@H](F)C7)nc5c3F)N(C3CCN(C(=O)C(F)F)CC3)CCO4)c12 [Compound 971, 2-amino-4-(8-chloro-4-(1-(2,2-difluoroacetyl)piperidin-4-yl)-10-fluoro-2-(((2R,7aS)-2-fluorotetrahydro-1H-pyrrolizin-7a(5H)-yl)methoxy)-5,6-dihydro-4H-[1,4]oxazepino[5,6,7-de]quinazolin-9-yl)-7-fluorobenzo[b]thiophene-3-carbonitrile]
7 | < 5000 | < 100 | < 100 | < 5000 | < 100 | < 100 | CN(CCN1CCOc2c(Cl)c(-c3ccc(F)c4sc(N)c(C#N)c34)c(F)c3nc(OC[C@@]45CCCN4C[C@H](F)C5)nc1c23)C(=O)C1CCC1 [Compound 895, N-(2-(9-(2-amino-3-cyano-7-fluorobenzo[b]thiophen-4-yl)-8-chloro-10-fluoro-2-(((2R,7aS)-2-fluorotetrahydro-1H-pyrrolizin-7a(5H)-yl)methoxy)-5,6-dihydro-4H-[1,4]oxazepino[5,6,7-de]quinazolin-4-yl)ethyl)-N-methylcyclobutanecarboxamide]
8 | < 5000 | < 100 | < 100 | < 5000 | < 100 | < 100 | COCCN1CCCOc2c(Cl)c(-c3ccc(F)c4sc(N)c(C#N)c34)c(F)c3nc(OC[C@@]45CCCN4C[C@H](F)C5)nc1c23 [Compound 1201, 2-amino-4-(9-chloro-11-fluoro-2-(((2R,7aS)-2-fluorotetrahydro-1H-pyrrolizin-7a(5H)-yl)methoxy)-4-(2-methoxyethyl)-4,5,6,7-tetrahydro-[1,5]oxazocino[4,3,2-de]quinazolin-10-yl)-7-fluorobenzo[b]thiophene-3-carbonitrile]
9 | < 5000 | < 100 | < 100 | < 5000 | < 100 | < 100 | C[C@H](Oc1nc2c3c(c(Cl)c(-c4ccc(F)c5sc(N)c(C#N)c45)c(F)c3n1)OCCN2C1CCOC1)[C@@H]1CCCN1C (stereo partly drawn) [Compound 924, 2-amino-4-(8-chloro-10-fluoro-2-((S)-1-((S)-1-methylpyrrolidin-2-yl)ethoxy)-4-(tetrahydrofuran-3-yl)-5,6-dihydro-4H-[1,4]oxazepino[5,6,7-de]quinazolin-9-yl)-7-fluorobenzo[b]thiophene-3-carbonitrile]
10 | < 5000 | < 100 | < 100 | < 5000 | < 100 | < 100 | N#Cc1c(N)sc2c(F)ccc(-c3c(Cl)c4c5c(nc(OC[C@@]67CCCN6C[C@H](F)C7)nc5c3F)N(C3CCN(C(=O)C(F)Cl)C3)CCO4)c12 (stereo partly drawn) [Compound 949, 2-amino-4-(8-chloro-4-(1-(2-chloro-2-fluoroacetyl)pyrrolidin-3-yl)-10-fluoro-2-(((2R,7aS)-2-fluorotetrahydro-1H-pyrrolizin-7a(5H)-yl)methoxy)-5,6-dihydro-4H-[1,4]oxazepino[5,6,7-de]quinazolin-9-yl)-7-fluorobenzo[b]thiophene-3-carbonitrile]
11 | < 5000 | < 100 | < 100 | < 5000 | < 100 | < 100 | C[C@H]1COc2c(Cl)c(-c3ccc(F)c4sc(N)c(C#N)c34)c(F)c3nc(OC[C@@]45CCCN4C[C@H](F)C5)nc(c23)N1C1CCN(C(=O)C2CC2C#N)CC1 (stereo partly drawn) [Compound 995, 2-amino-4-((5S)-8-chloro-4-(1-(2-cyanocyclopropane-1-carbonyl)piperidin-4-yl)-10-fluoro-2-(((2R,7aS)-2-fluorotetrahydro-1H-pyrrolizin-7a(5H)-yl)methoxy)-5-methyl-5,6-dihydro-4H-[1,4]oxazepino[5,6,7-de]quinazolin-9-yl)-7-fluorobenzo[b]thiophene-3-carbonitrile]
12 | < 5000 | < 100 | < 100 | < 5000 | < 100 | < 100 | N#Cc1c(N)sc2c(F)ccc(-c3c(Cl)c4c5c(nc(OC[C@@]67CCCN6C[C@H](F)C7)nc5c3F)N(C3CCN(S(=O)(=O)C5CC5)C3)CCO4)c12 (stereo partly drawn) [Compound 922, 2-amino-4-(8-chloro-4-(1-(cyclopropylsulfonyl)pyrrolidin-3-yl)-10-fluoro-2-(((2R,7aS)-2—fluorotetrahydro-1H-pyrrolizin-7a(5H)-yl)methoxy)-5,6-dihydro-4H-[1,4]oxazepino[5,6,7-de]quinazolin-9-yl)-7-fluorobenzo[b]thiophene-3-carbonitrile]
13 | < 5000 | < 100 | < 100 | < 5000 | < 100 | < 100 | N#Cc1c(N)sc2c(F)ccc(-c3c(Cl)c4c5c(nc(OC[C@@]67CCCN6C[C@H](F)C7)nc5c3F)N(C3CCCOCC3)CCO4)c12 (stereo partly drawn) [Compound 638, 2-amino-4-(8-chloro-10-fluoro-2-(((2R,7aS)-2-fluorotetrahydro-1H-pyrrolizin-7a(5H)-yl)methoxy)-4-(oxepan-4-yl)-5,6-dihydro-4H-[1,4]oxazepino[5,6,7-de]quinazolin-9-yl)-7-fluorobenzo[b]thiophene-3-carbonitrile]
